These results are taken from EP4810052A2, “HCRHR2 SELECTIVE POLYPEPTIDES” (Gubra A/S, priority 2023, dated 2026).

A short description of series [1]: Effect on acute food intake in mice. In kind it is in vivo. To be noted: single subcutaneous dose. The procedure, abridged: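 Male NMRI mice (n=7-8 per group) were fasted from six hours before the dark phase. They received a single subcutaneous peptide dose one hour before dark onset. Hourly food intake was monitored for 72 h and expressed as percent reduction versus vehicle, analysed by one-way ANOVA with Dunnett's test.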

Series [2] can be described thus: PK in rats. In kind it is in vivo. Also noted: T½ / MRT: unit not given here. The settings on record: for MRT / T½ / clearance / half-life / Cmax / Tmax: Rat; for clearance / half-life / Cmax / Tmax / bioavailability: male, in vivo; for clearance / half-life / Cmax / Tmax: Sprague Dawley (RJHan:SD); for half-life: read-out: T½ (converted); for bioavailability: Sprague Dawley, rat. The essentials: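 Lean male Sprague Dawley rats (n = 3 per group) got a two-peptide combination at 50 nmol/kg IV and SC. Plasma was sampled from 0.17 to 96 h post dose and analysed by LC-MSMS. PK parameters came from non-compartmental analysis.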

Series [3] has as its target T1, hCRHR2 (Homo sapiens, UniProt Q13324).
T1 sequence (Q13324 1-411): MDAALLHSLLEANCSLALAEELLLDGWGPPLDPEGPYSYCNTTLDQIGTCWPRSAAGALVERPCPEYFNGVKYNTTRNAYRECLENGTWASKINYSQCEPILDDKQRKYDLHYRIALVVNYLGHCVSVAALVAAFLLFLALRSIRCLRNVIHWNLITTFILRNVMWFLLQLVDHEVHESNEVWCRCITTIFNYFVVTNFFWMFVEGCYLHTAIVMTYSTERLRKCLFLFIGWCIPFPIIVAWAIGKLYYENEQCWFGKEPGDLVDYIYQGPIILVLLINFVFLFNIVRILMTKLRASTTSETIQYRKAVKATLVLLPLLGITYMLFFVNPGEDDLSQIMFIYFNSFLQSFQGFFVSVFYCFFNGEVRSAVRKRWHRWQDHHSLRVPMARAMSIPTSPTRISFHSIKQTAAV
As to the kind of experiment: HTRF cAMP assay, determination of hCRHR2 potency (peptide libraries 5 conc., purified peptides 11 conc.). Format: cell-based. The procedure, abridged: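 CHO-K1 cells stably expressing human CRHR2 were thawed from frozen stocks immediately before use and assayed in suspension with agonist peptides. cAMP was measured by time-resolved FRET in a competitive immunoassay between cryptate-labelled anti-cAMP antibody and d2-labelled cAMP. EC50 values came from nonlinear regression, sigmoid variable-slope fit.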
(TR-FRET usually uses a lanthanide donor and a delayed reading to cut background.)

Series [4] can be described thus: Thioflavin T fibril formation assay of purified peptides. In kind it is physicochemical. Also noted: key: Amyloid fibril formation detected by an increase in ThT fluorescence was denoted with "Yes"; samples without increasing ThT fluorescence hence not forming amyloid fibrils were denoted "No". The essentials: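 Compounds at 200 µM in 50 mM phosphate buffer at the stated pH values, or at 200 µM in semaglutide drug product adjusted to pH 7.4, with 4 µM ThT final. Fibrillation followed as ThT fluorescence (ex 450/em 480 nm) over 96 h at 40°C, with 5 min shaking at 700 rpm alternating with 5 min rest; triplicates.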

The mark [5] stands for this setting: purified peptides, CHO-K1 cells stably expressing hCRHR2, cAMP HTRF, read-out: hCRHR2 EC50.

Where two headings read alike, the source gives them in different places. Marks after values point to notes of the source that are not given here. Starred links: 1 amine or outer side, 2 acyl side, 3 side chain; linkers in the order of their positions; H or OH if unused. Non-standard residues stand in square brackets, D forms with d. Residues, ends and D or L forms follow the SMILES beside them. Groups on a side chain read outwards from the residue. *: point of attachment. C20 diacid = O=C(O)CCCCCCCCCCCCCCCCCCC(=O)*; γGlu = O=C(O)[C@H](CCC(=O)[*:2])N[*:1]; NMeI = CC[C@H](C)[C@H](NC)C(=O)O; Nle = CCCC[C@H](N)C(=O)O; AEEA = NCCOCCOCC(=O)O; Aib = CC(C)(N)C(=O)O Bounds are passed on as bounds.

As usually defined, the clearance is a measure of how efficiently the substance is removed, as volume per time. What is called Cmax is the highest concentration seen after dosing. By Tmax is commonly meant the time from dosing to the highest level. In general, bioavailability refers to the share of a dose that reaches the circulation, judged against a reference dose that is usually intravenous. On to `CC[C@H](C)[C@H](NC)C(=O)N[C@H](C(=O)N[C@@H](CC(C)C)C(=O)N[C@@H](CO)C(=O)N[C@@H](CC(C)C)C(=O)N[C@@H](CC(=O)O)C(=O)N[C@H](C(=O)N1CCC[C@H]1C(=O)N[C@H](C(=O)NCC(=O)N[C@@H](CC(C)C)C(=O)N[C@@H](CC(C)C)C(=O)N[C@@H](CCC(N)=O)C(=O)N[C@H](C(=O)N[C@@H](CC(C)C)C(=O)N[C@@H](CC(C)C)C(=O)N[C@@H](CCC(=O)O)C(=O)N[C@@H](CCC(N)=O)C(=O)N[C@@H](C)C(=O)N[C@@H](CCCNC(=N)N)C(=O)N[C@@H](C)C(=O)N[C@@H](CCCNC(=N)N)C(=O)N[C@@H](C)C(=O)N[C@@H](C)C(=O)N[C@@H](CCCNC(=N)N)C(=O)N[C@@H](CCC(=O)O)C(=O)N[C@@H](CCC(N)=O)C(=O)N[C@@H](C)C(=O)N[C@@H](CCCCNC(=O)COCCOCCNC(=O)COCCOCCNC(=O)CC[C@H](NC(=O)CC[C@H](NC(=O)CCCCCCCCCCCCCCCCCCC(=O)O)C(=O)O)C(=O)O)C(=O)N[C@H](C(=O)N[C@@H](CC(N)=O)C(=O)NC(C)(C)C(=O)N[C@@H](CCC(=O)O)C(=O)N[C@H](C(=O)N[C@@H](CC(C)C)C(=O)N[C@@H](C)C(=O)N[C@@H](CCC(=O)O)C(=O)N[C@H](C(N)=O)C(C)C)[C@@H](C)CC)[C@@H](C)O)[C@@H](C)CC)[C@@H](C)CC)C(C)C)C(C)C` [SEQ ID NO: 16] (H-[NMeI]VLSLDVPIGLLQILLEQARARAAREQAK([AEEA-AEEA-γGlu-γGlu-C20 diacid])TN[Aib]EILAEV-NH2), for which, in series [1] (30 nmol/kg), the “% FI compared to vehicle, 24 h post-dosing” value (shortened to “% FI compared to vehicle”) was 44.62*** %. Further, the “% FI compared to vehicle” value in series [1] (100 nmol/kg) is recorded as 18.21*** %. For the same compound, the “% FI compared to vehicle” value in series [1] (300 nmol/kg) is on record as 12.36*** %. For the same compound, in series [2], the MRT is reported as 9.4 and the T½ was 7.8. Also, in series [2] (iv, 50 nmol/kg i.v.), the clearance is 0.117 mL/min/kg and the half-life was 7.8 h. Besides, in series [2] (sc, 50 nmol/kg s.c.), the Cmax was 87 nM, the Tmax was 24 h and the half-life was 9.8 h. Moreover, the bioavailability in series [2] (sc) turned out to be 31%. The “Solubility pH 6.5 (mg/ml)” value (pH 6.5) is 20.6 mg/ml. In addition, the “Solubility pH 7.0 (mg/mL)” value (pH 7) turned out to be 19.8 mg/mL. Moreover, for the setting “pH 7.5”, the “Solubility pH 7.5 (mg/mL)” value is 17.9 mg/mL; the “Solubility pH 7.5 + phenol (mg/mL)” value is 18.0 mg/mL; the “Solubility pH 7.5, target conc. =10 mg/mL (measured mg/mL)” value came out at 10 mg/mL. Besides, the “Selectivity ratio (hCRHR1/ hCRHR2)” value in series [3] (hCRHR1-EC50/hCRHR2-EC50) is recorded as above 1852. Further, the EC50 in series [3] (setting [5]) was found to be 2700 pM. The “Amyloid fibril formation + semaglutide (Ozempic®), pH 7.4” value in series [4] (200 µM compound dissolved in semaglutide drug product, pH 7.4, listed as None = drug product alone) is “No”. In addition, the “Amyloid fibril formation pH 7.0” value in series [4] (200 µM in 50 mM phosphate buffer, pH 7.0) was “No”. The “Amyloid fibril formation pH 7.5” value in series [4] (200 µM in 50 mM phosphate buffer, pH 7.5) is on record as “No”. Further, the “Amyloid fibril formation pH 8.0” value in series [4] (200 µM in 50 mM phosphate buffer, pH 8.0) is “No”. Also, in series [4] (pH 7.5, ThT assay), the “Fibrillation (pH 7.5)” value is on record as “No”.
On to `CCCC[C@H](NC(=O)[C@@H](NC(=O)[C@H](CCC(=O)O)NC(=O)[C@H](C)NC(=O)[C@H](CC(N)=O)NC(=O)C(C)(C)NC(=O)[C@H](CCCCNC(=O)COCCOCCNC(=O)COCCOCCNC(=O)CC[C@H](NC(=O)CC[C@H](NC(=O)CCCCCCCCCCCCCCCCCCC(=O)O)C(=O)O)C(=O)O)NC(=O)[C@H](C)NC(=O)[C@H](CCC(N)=O)NC(=O)[C@H](CCC(=O)O)NC(=O)[C@H](CCCNC(=N)N)NC(=O)[C@H](C)NC(=O)[C@H](C)NC(=O)[C@H](CCCNC(=N)N)NC(=O)[C@H](C)NC(=O)[C@H](CCCNC(=N)N)NC(=O)[C@H](C)NC(=O)[C@H](CCC(N)=O)NC(=O)[C@H](CO)NC(=O)[C@H](CC(C)C)NC(=O)[C@H](CC(C)C)NC(=O)[C@@H](NC(=O)[C@H](CCC(N)=O)NC(=O)[C@H](CC(C)C)NC(=O)[C@H](CC(C)C)NC(=O)CNC(=O)[C@@H](NC(=O)[C@@H]1CCCN1C(=O)[C@@H](NC(=O)[C@H](CC(=O)O)NC(=O)[C@H](CC(C)C)NC(=O)[C@H](CO)NC(=O)[C@H](CC(C)C)NC(=O)[C@@H](NC(=O)[C@@H](N)[C@@H](C)CC)C(C)C)C(C)C)[C@@H](C)CC)[C@@H](C)CC)[C@@H](C)CC)C(=O)N[C@@H](C)C(=O)N[C@@H](CCC(=O)O)C(=O)N[C@H](C(N)=O)C(C)C` [compound 237] (H-IVLSLDVPIGLLQILLSQARARAAREQAK([AEEA-AEEA-γGlu-γGlu-C20 diacid])[Aib]NAEI[Nle]AEV-NH2), for which the “% FI compared to vehicle” value in series [1] (30 nmol/kg) is 51.49*** %; in series [1] (100 nmol/kg), 16.66*** %; in series [1] (300 nmol/kg) it was 13.2*** %. Further, the MRT in series [2] is 5.1. Also, the T½ in series [2] is 4.1. Further, the “Solubility pH 7.5, target conc. =10 mg/mL (measured mg/mL)” value (pH 7.5) amounted to 10 mg/mL. Further, the “Selectivity ratio (hCRHR1/ hCRHR2)” value in series [3] (Table 5) is recorded as above 6494. Further, in series [3] (Table 5, purified peptides, read-out: hCRHR2 EC50), the EC50 stood at 770 pM. Also, the “Fibrillation (pH 7.5)” value in series [4] (pH 7.5) is “No”.
Take `CC[C@H](C)[C@H](N)C(=O)N[C@H](C(=O)N[C@@H](CC(C)C)C(=O)N[C@@H](CO)C(=O)N[C@@H](CC(C)C)C(=O)N[C@@H](CC(=O)O)C(=O)N[C@H](C(=O)N1CCC[C@H]1C(=O)N[C@H](C(=O)NCC(=O)N[C@@H](CC(C)C)C(=O)N[C@@H](CC(C)C)C(=O)N[C@@H](CCC(N)=O)C(=O)N[C@H](C(=O)N[C@@H](CC(C)C)C(=O)N[C@@H](CC(C)C)C(=O)N[C@@H](CCC(=O)O)C(=O)N[C@@H](CCC(N)=O)C(=O)N[C@@H](C)C(=O)N[C@@H](CCCNC(=N)N)C(=O)N[C@@H](C)C(=O)N[C@@H](CCCNC(=N)N)C(=O)N[C@@H](C)C(=O)N[C@@H](C)C(=O)N[C@@H](CCCNC(=N)N)C(=O)N[C@@H](CCC(=O)O)C(=O)N[C@@H](CCC(N)=O)C(=O)N[C@@H](C)C(=O)N[C@@H](CCCCNC(=O)COCCOCCNC(=O)COCCOCCNC(=O)CC[C@H](NC(=O)CC[C@H](NC(=O)CCCCCCCCCCCCCCCCCCC(=O)O)C(=O)O)C(=O)O)C(=O)N[C@H](C(=O)N[C@@H](CC(N)=O)C(=O)N[C@@H](C)C(=O)N[C@@H](CCC(=O)O)C(=O)N[C@H](C(=O)N[C@@H](CC(C)C)C(=O)N[C@@H](C)C(=O)N[C@@H](CCC(=O)O)C(=O)N[C@H](C(N)=O)C(C)C)[C@@H](C)CC)[C@@H](C)O)[C@@H](C)CC)[C@@H](C)CC)C(C)C)C(C)C` [SEQ ID NO: 3] (H-IVLSLDVPIGLLQILLEQARARAAREQAK([AEEA-AEEA-γGlu-γGlu-C20 diacid])TNAEILAEV-NH2): the “% FI compared to vehicle” value is given as 67.63*** % in series [1] (30 nmol/kg), 30.75*** % in series [1] (100 nmol/kg) and 30.66*** % in series [1] (300 nmol/kg). Moreover, in series [2], the MRT is 9.2. Moreover, the T½ in series [2] is recorded as 7.7. For the same compound, the clearance in series [2] (iv, 50 nmol/kg i.v.) is 0.0833 mL/min/kg. The half-life in series [2] (iv, 50 nmol/kg i.v.) is 7.7 h; in series [2] (sc, 50 nmol/kg s.c.) it was 7.9 h. Also, the Cmax in series [2] (sc, 50 nmol/kg s.c.) was 90 nM. For the same compound, the Tmax in series [2] (sc, 50 nmol/kg s.c.) turned out to be 24 h. Further, in series [2] (sc), the bioavailability amounted to 27%. Further, the “Solubility pH 7.5, target conc. =5 mg/mL (measured mg/mL)” value (pH 7.5) turned out to be 4.5 mg/mL. Besides, the “Solubility pH 7.5, target conc. =10 mg/mL (measured mg/mL)” value (pH 7.5) was 10 mg/mL. Also, the EC50 is 501 pM in series [3] (Table 3, matched molecular pairs X^38 L vs Nle, peptide library of Example 4, read-out: hCRHR2 pEC50 (converted)) and 1100 pM in series [3] (setting [5]). The “Selectivity ratio (hCRHR1/ hCRHR2)” value in series [3] (Table 5) and in series [3] (hCRHR1-EC50/hCRHR2-EC50) was above 4546 each time. The “Fibrillation (pH 7.5)” value in series [4] (pH 7.5) is “No”; in series [4] (pH 7.5, ThT assay), “No”.
